Values of other authors as cited in US20080207601A1, “Methods of and Compositions For the Prevention of Anxiety, Substance Abuse, and Dependence” (Hythiam , Inc., priority 2005, published 2008).

Tests used:
[1] = in vivo
[2] = not given; remark: listed apart in the source
allopregnanolone = details: clinical studies
[3] = as much as

In the case of `N[C@@H]1C[C@H]1c1ccccc1` (racemic) [TRANYLCYPROMINE], the “time in which the drug is excreted” value [1] is given as 24 h.

In the case of `COc1ccc2c3c1O[C@H]1[C@@H](O)CC[C@H]4[C@@H](C2)N(C)CC[C@@]341` [DIHYDROCODEINE], the “potency relative to codeine” value (in vivo) is listed as “Dihydrocodeine is approximately twice as potent as codeine; this is”.

For `C[C@]12C=CC(=O)N[C@@H]1CC[C@@H]1[C@@H]2CC[C@]2(C)[C@@H](C(=O)Nc3cc(C(F)(F)F)ccc3C(F)(F)F)CC[C@@H]12` [Dutasteride, (5α,17β)-N-{2,5 bis(trifluoromethyl)phenyl}-3-oxo-4-azaandrost-1-ene-17-carboxamide], the “adverse effects compared with therapeutic dose of 0.5 mg” value ([2]; daily doses of 5 mg, 60 subjects, 6 months) is listed as “subjects for 6 months with no additional adverse effects to those” and the safety concerns ([2]; single doses up to 40 mg (80 times the therapeutic dose) for 7 days, volunteer studies) is listed as “without significant safety concerns. In a clinical study, daily doses”.

In the case of `CNCCC(Oc1ccc(C(F)(F)F)cc1)c1ccccc1` (centres unmarked) [Fluoxetine], the “brain and cerebrospinal fluid content of allopregnanolone” value (allopregnanolone) is given as “increase”.

In the case of `CCCC(C)(COC(N)=O)COC(N)=O` [MEPROBROMATE], the “ingested amount with reported survival” value [3] is listed as “much as 40 g”.

For `COc1cccc(C2(O)CCCCC2CN(C)C)c1` (centres unmarked) [TRAMADOL], the “potency relative to morphine” value (IV/IM route) is given as “Tramadol is approximately 10% as potent as morphine, when given”.

In the case of `CN1C(=O)CN=C(c2ccccc2)c2cc(Cl)ccc21` [diazepam], the “effect on the positive modulation of 3 μM flumazenil induced by ethanol withdrawal” value (GABAA receptors; 10 μM diazepam substituted for ethanol) is listed as “negated the positive modulation”.

For `CC(=O)[C@H]1CC[C@H]2[C@@H]3CC[C@@H]4C[C@@H](O)CC[C@]4(C)[C@H]3CC[C@]12C` [epipregnanolone], the “effect on potentiation of GABAA receptor function by allopregnanolone and alphaxalone” value (GABAA receptor) is listed as “inhibited”.

For `CCOC(=O)c1ncn2c1CN(C)C(=O)c1cc(F)ccc1-2` [flumazenil, ethyl 8-fluoro-5,6-dihydro-5-methyl-6-oxo-4H-imidazo-[1,5-a][1,4]benzodiazepine-3-carboxylate], the “modulation of the GABA evoked Cl-current” value (GABAA receptors; 3 μM flumazenil, ethanol withdrawn cells) is listed as “potentiates”.

For `CC(=O)[C@H]1CC[C@H]2[C@@H]3CC[C@H]4C[C@@H](O)CC[C@]4(C)[C@H]3CC[C@]12C` [isopregnanolone], the “effect on potentiation of GABAA receptor function by allopregnanolone and alphaxalone” value (GABAA receptor) is listed as “inhibited”.
